Experimental data as given in the NIST ThermoML archive (doi:10.1021/je060271a).
Where “and” joins values, the source holds several entries; their conditions need not be identical. Equal values may be shown once.

Conditions: 283.15 K, Liquid, Vibrating tube method

CCCCCC(=O)OCC(COC(=O)CCCCC)(COC(=O)CCCCC)COC(=O)CCCCC [pentaerythritol tetrahexanoate]
Conditions	mass density
15225 kPa	1012.8 kg/m3
15241 kPa	1012.9 kg/m3
15260 kPa	1012.8 kg/m3
15276 kPa	1012.7 kg/m3
15292 kPa	1012.8 kg/m3
15311 kPa	1012.8 kg/m3
15327 kPa	1013 kg/m3
15343 kPa	1012.8 kg/m3
15363 kPa	1012.9 kg/m3
15379 kPa	1013.1 kg/m3
15395 kPa	1012.9 kg/m3
15412 kPa	1013 kg/m3
15432 kPa	1012.9 kg/m3
15448 kPa	1012.9 kg/m3
15467 kPa	1013.1 kg/m3
15483 kPa	1013.1 kg/m3
15500 kPa	1013.1 kg/m3
15519 kPa	1012.8 kg/m3
15536 kPa	1013.1 kg/m3
15552 kPa	1012.9 kg/m3
15572 kPa	1013 kg/m3
15589 kPa	1013 kg/m3
15606 kPa	1013 kg/m3
15626 kPa	1013 kg/m3
15642 kPa	1013.1 kg/m3
15659 kPa	1012.9 kg/m3
15679 kPa	1013 kg/m3
15696 kPa	1013.1 kg/m3
15713 kPa	1013.1 kg/m3
15733 kPa	1013 kg/m3
15750 kPa	1013.1 kg/m3
15767 kPa	1013.1 kg/m3
15788 kPa	1013 kg/m3
15805 kPa	1013.2 kg/m3
15823 kPa	1013.2 kg/m3
15841 kPa	1013.2 kg/m3
15861 kPa	1013.1 kg/m3
15878 kPa	1013.2 kg/m3
16066 kPa	1013.4 kg/m3
16083 kPa	1013.3 kg/m3
16104 kPa	1013.4 kg/m3
16122 kPa	1013.3 kg/m3
16139 kPa	1013.3 kg/m3
16157 kPa	1013.3 kg/m3
16178 kPa	1013.2 kg/m3
16195 kPa	1013.3 kg/m3
16214 kPa	1013.4 kg/m3
16230 kPa	1013.4 kg/m3
16247 kPa	1013.2 kg/m3
16266 kPa	1013.4 kg/m3
16282 kPa	1013.4 kg/m3
16299 kPa	1013.5 kg/m3
16315 kPa	1013.4 kg/m3
16334 kPa	1013.3 kg/m3
16351 kPa	1013.4 kg/m3
16368 kPa	1013.6 kg/m3
16388 kPa	1013.5 kg/m3
16404 kPa	1013.4 kg/m3
16421 kPa	1013.5 kg/m3
16441 kPa	1013.4 kg/m3
16457 kPa	1013.5 kg/m3
16474 kPa	1013.5 kg/m3
16491 kPa	1013.6 kg/m3
16511 kPa	1013.5 kg/m3
16528 kPa	1013.6 kg/m3
16545 kPa	1013.6 kg/m3
16565 kPa	1013.7 kg/m3
16582 kPa	1013.5 kg/m3
16598 kPa	1013.5 kg/m3
16619 kPa	1013.6 kg/m3
16636 kPa	1013.6 kg/m3
16653 kPa	1013.6 kg/m3
16673 kPa	1013.6 kg/m3
16690 kPa	1013.7 kg/m3
16707 kPa	1013.6 kg/m3
16727 kPa	1013.6 kg/m3
16745 kPa	1013.6 kg/m3
16762 kPa	1013.6 kg/m3
16782 kPa	1013.6 kg/m3
16800 kPa	1013.6 kg/m3
16817 kPa	1013.7 kg/m3
16837 kPa	1013.7 kg/m3
16854 kPa	1013.6 kg/m3
16872 kPa	1013.7 kg/m3
16893 kPa	1013.7 kg/m3
16911 kPa	1013.8 kg/m3
16929 kPa	1013.8 kg/m3
16951 kPa	1013.7 kg/m3
16969 kPa	1013.8 kg/m3
16988 kPa	1013.8 kg/m3
17008 kPa	1013.8 kg/m3
17031 kPa	1013.9 kg/m3
17050 kPa	1013.8 kg/m3
17097 kPa	1013.8 kg/m3
17099 kPa	1013.9 kg/m3
17100 kPa	1013.9 kg/m3
17101 kPa	1013.7 kg/m3
17113 kPa	1013.8 kg/m3
17138 kPa	1013.8 kg/m3
17147 kPa	1013.8 kg/m3
17148 kPa	1013.8 kg/m3 and 1014 kg/m3
17156 kPa	1013.8 kg/m3
17174 kPa	1013.8 kg/m3
17193 kPa	1013.9 kg/m3
17211 kPa	1013.9 kg/m3
17233 kPa	1013.8 kg/m3
17252 kPa	1013.9 kg/m3
17270 kPa	1014 kg/m3
17291 kPa	1013.9 kg/m3
17309 kPa	1013.8 kg/m3
17331 kPa	1014 kg/m3
17350 kPa	1013.9 kg/m3
17373 kPa	1013.9 kg/m3
17392 kPa	1014 kg/m3
17411 kPa	1014.1 kg/m3
17430 kPa	1014 kg/m3
17453 kPa	1014.1 kg/m3
17472 kPa	1014 kg/m3
17491 kPa	1014.1 kg/m3
17514 kPa	1014.1 kg/m3
17534 kPa	1014.1 kg/m3
17555 kPa	1014 kg/m3
17574 kPa	1014.1 kg/m3
17593 kPa	1014.1 kg/m3
17616 kPa	1014.1 kg/m3
17635 kPa	1014.1 kg/m3
17656 kPa	1014 kg/m3
17672 kPa	1014.2 kg/m3
17688 kPa	1014.2 kg/m3
17708 kPa	1014 kg/m3
17723 kPa	1014.2 kg/m3
17739 kPa	1014.3 kg/m3
17758 kPa	1014.2 kg/m3
17775 kPa	1014.2 kg/m3
17791 kPa	1014.2 kg/m3
17807 kPa	1014.3 kg/m3
17827 kPa	1014.2 kg/m3
17843 kPa	1014.2 kg/m3
17861 kPa	1014.3 kg/m3
17877 kPa	1014.2 kg/m3
17892 kPa	1014.2 kg/m3
17907 kPa	1014.3 kg/m3
17925 kPa	1014.3 kg/m3
17939 kPa	1014.3 kg/m3
17954 kPa	1014.2 kg/m3
17972 kPa	1014.2 kg/m3
17987 kPa	1014.3 kg/m3
18002 kPa	1014.3 kg/m3
18020 kPa	1014.4 kg/m3
18035 kPa	1014.3 kg/m3
18050 kPa	1014.4 kg/m3
18068 kPa	1014.4 kg/m3
18083 kPa	1014.3 kg/m3
18098 kPa	1014.3 kg/m3
18116 kPa	1014.5 kg/m3
18131 kPa	1014.3 kg/m3
18146 kPa	1014.4 kg/m3
18161 kPa	1014.3 kg/m3
18179 kPa	1014.4 kg/m3
18195 kPa	1014.4 kg/m3
18210 kPa	1014.5 kg/m3
18228 kPa	1014.4 kg/m3
18243 kPa	1014.5 kg/m3
18259 kPa	1014.6 kg/m3
18277 kPa	1014.5 kg/m3
18292 kPa	1014.4 kg/m3
18308 kPa	1014.5 kg/m3
18326 kPa	1014.5 kg/m3
18341 kPa	1014.6 kg/m3
18356 kPa	1014.6 kg/m3
18375 kPa	1014.5 kg/m3
18391 kPa	1014.5 kg/m3
18407 kPa	1014.6 kg/m3
18425 kPa	1014.6 kg/m3
18441 kPa	1014.6 kg/m3
18457 kPa	1014.6 kg/m3
18472 kPa	1014.5 kg/m3
18491 kPa	1014.6 kg/m3
18506 kPa	1014.6 kg/m3
18522 kPa	1014.6 kg/m3
18541 kPa	1014.5 kg/m3
18557 kPa	1014.7 kg/m3
18576 kPa	1014.6 kg/m3
18592 kPa	1014.6 kg/m3
18608 kPa	1014.7 kg/m3
18624 kPa	1014.6 kg/m3
18643 kPa	1014.6 kg/m3
18659 kPa	1014.7 kg/m3
18676 kPa	1014.7 kg/m3
18695 kPa	1014.7 kg/m3
18711 kPa	1014.7 kg/m3
18727 kPa	1014.7 kg/m3
18746 kPa	1014.7 kg/m3
18763 kPa	1014.8 kg/m3
18779 kPa	1014.7 kg/m3
18796 kPa	1014.7 kg/m3
18815 kPa	1014.9 kg/m3
18832 kPa	1014.7 kg/m3
18848 kPa	1014.9 kg/m3
18868 kPa	1014.8 kg/m3
18884 kPa	1014.9 kg/m3
18901 kPa	1014.7 kg/m3
18917 kPa	1014.9 kg/m3
18937 kPa	1014.7 kg/m3
18954 kPa	1014.9 kg/m3
18970 kPa	1014.9 kg/m3
18990 kPa	1014.8 kg/m3
19005 kPa	1014.9 kg/m3
19024 kPa	1014.9 kg/m3
19040 kPa	1014.9 kg/m3
19057 kPa	1015 kg/m3
19075 kPa	1014.8 kg/m3
19091 kPa	1014.9 kg/m3
19107 kPa	1014.8 kg/m3
19126 kPa	1015 kg/m3
19142 kPa	1015 kg/m3
19161 kPa	1015 kg/m3
19177 kPa	1014.9 kg/m3
19193 kPa	1015 kg/m3
19212 kPa	1014.9 kg/m3
19228 kPa	1014.9 kg/m3
19245 kPa	1015.1 kg/m3
19264 kPa	1015 kg/m3
19281 kPa	1015.1 kg/m3
19297 kPa	1014.9 kg/m3
19313 kPa	1014.9 kg/m3
19333 kPa	1014.9 kg/m3
19350 kPa	1015 kg/m3
19366 kPa	1015 kg/m3
19382 kPa	1015.1 kg/m3
19402 kPa	1015 kg/m3
19418 kPa	1015.2 kg/m3
19438 kPa	1015.1 kg/m3
19455 kPa	1015.2 kg/m3
19471 kPa	1015.1 kg/m3
19488 kPa	1015.1 kg/m3
19509 kPa	1015.1 kg/m3
19525 kPa	1015.1 kg/m3
19542 kPa	1015.1 kg/m3
19559 kPa	1015.2 kg/m3
19579 kPa	1015.2 kg/m3
19596 kPa	1015.1 kg/m3
19616 kPa	1015.1 kg/m3
19633 kPa	1015.2 kg/m3
19649 kPa	1015.3 kg/m3
19666 kPa	1015.2 kg/m3
19686 kPa	1015.3 kg/m3
19703 kPa	1015.3 kg/m3
19720 kPa	1015.3 kg/m3
19741 kPa	1015.4 kg/m3
19758 kPa	1015.3 kg/m3
19778 kPa	1015.2 kg/m3
19796 kPa	1015.3 kg/m3
19813 kPa	1015.3 kg/m3
19830 kPa	1015.3 kg/m3
19851 kPa	1015.3 kg/m3
19868 kPa	1015.3 kg/m3
19885 kPa	1015.3 kg/m3
19906 kPa	1015.4 kg/m3
19922 kPa	1015.4 kg/m3
19941 kPa	1015.3 kg/m3
19957 kPa	1015.4 kg/m3
19973 kPa	1015.4 kg/m3
19989 kPa	1015.4 kg/m3
20008 kPa	1015.2 kg/m3
20024 kPa	1015.4 kg/m3
20040 kPa	1015.4 kg/m3
20059 kPa	1015.4 kg/m3
20075 kPa	1015.4 kg/m3
20094 kPa	1015.4 kg/m3
20110 kPa	1015.4 kg/m3
20126 kPa	1015.5 kg/m3
20143 kPa	1015.5 kg/m3
20162 kPa	1015.5 kg/m3
20178 kPa	1015.4 kg/m3
20194 kPa	1015.6 kg/m3
20213 kPa	1015.5 kg/m3
20228 kPa	1015.5 kg/m3
20246 kPa	1015.4 kg/m3
20262 kPa	1015.5 kg/m3
20277 kPa	1015.6 kg/m3
20293 kPa	1015.5 kg/m3
20312 kPa	1015.6 kg/m3
20328 kPa	1015.6 kg/m3
20343 kPa	1015.5 kg/m3
20362 kPa	1015.6 kg/m3
20378 kPa	1015.6 kg/m3
20395 kPa	1015.7 kg/m3
20410 kPa	1015.6 kg/m3
